The target in test [1] is T1, hS1P1R (hEdg1) membrane protein (Homo sapiens, UniProt P21453).
T1 construct: purchased Lonza
Put plainly: hS1P1R GTPγS binding assay (Assay 3a). The test is classed as biochemical. The method, then:
Assay 3a: The hS1P1R GTPγS binding assay was carried out at room temperature in 96 well non-binding surface assay plates. The reaction in each well contained 4 μg hS1P1R (hEdg1) membrane protein (Lonza), 30 μM GDP, 0.1 nM [^35S]GTPγS, 0.25% fatty acid free BSA, and serially diluted hS1P1R agonist compound in 200 μL assay buffer (25 mM Tris-HCl PH 7.9, 100 mM NaCl, 3 mM MgCl2, and 0.2 mM EGTA). After one hour of incubation, 0.9 mg of WGA (Wheat Germ Agglutinin) SPA beads in 50 μL of assay buffer was added to each well. The SPA beads were spun down after an additional one hour incubation. The radioactivity of the bound GTPγS was counted by reading the assay plate using a MicroBeta.
(Binding of GTPγS marks nucleotide exchange on a G protein.)

The target in test [2] is T2, S1P1 (Homo sapiens, UniProt P21453).
T2 construct: host or cells: U2OS
T2 sequence (P32121 whole entry): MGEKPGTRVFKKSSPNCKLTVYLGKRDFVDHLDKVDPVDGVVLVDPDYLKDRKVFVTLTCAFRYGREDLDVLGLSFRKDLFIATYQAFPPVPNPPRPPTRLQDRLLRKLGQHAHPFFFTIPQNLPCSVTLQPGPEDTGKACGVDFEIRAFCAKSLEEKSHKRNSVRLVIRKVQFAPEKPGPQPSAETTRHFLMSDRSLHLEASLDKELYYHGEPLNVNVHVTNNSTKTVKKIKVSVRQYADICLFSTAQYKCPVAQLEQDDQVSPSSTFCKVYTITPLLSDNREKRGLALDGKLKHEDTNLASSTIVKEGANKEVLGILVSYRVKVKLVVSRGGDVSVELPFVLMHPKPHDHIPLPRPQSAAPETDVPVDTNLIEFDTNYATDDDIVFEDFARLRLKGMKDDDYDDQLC
T2 sequence (P21453 whole entry): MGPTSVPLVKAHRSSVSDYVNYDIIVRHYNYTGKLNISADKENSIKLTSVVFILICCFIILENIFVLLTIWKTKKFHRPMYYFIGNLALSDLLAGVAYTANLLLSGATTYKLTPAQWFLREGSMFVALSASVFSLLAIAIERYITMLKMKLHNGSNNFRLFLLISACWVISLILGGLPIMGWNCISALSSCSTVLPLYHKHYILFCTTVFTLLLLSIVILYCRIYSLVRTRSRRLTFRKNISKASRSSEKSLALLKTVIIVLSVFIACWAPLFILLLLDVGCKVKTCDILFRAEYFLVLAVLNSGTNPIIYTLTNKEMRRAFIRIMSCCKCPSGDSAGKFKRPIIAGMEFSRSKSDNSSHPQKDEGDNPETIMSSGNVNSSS
Put plainly: Tango β-arrestin recruitment assay in U2OS cells (Assay 2b). Particulars: read-out: Assay 2b EC50. The test is classed as cell-based. From the text:
(§1) For the Tango™ β-arrestin recruitment assay, the cytoplasmic C-terminus of S1P1 was tethered to the tTA transcriptional activator with a linker that contains a cleavage site for the N1a protease from tobacco etch virus (TEV protease). The C-terminus of the human β-arrestin2 protein was fused to TEV protease. Binding of an agonist recruits the βl -arrestin-TEV fusion protein to the receptor resulting in cleavage of the linker and released of tTA to enter the nucleus and subsequently activated a tTA-dependent luciferase reporter gene.
Assay 2b: Alternatively, U2OS cells expressing the reporter gene and S1P1 (Invitrogen) were added to the wells of a 384-well white opaque bottom assay plate (PerkinElmer) at […]. The cells were serum starved for 48 h in Freestyle medium (Invitrogen). Test compounds were tested at maximum concentrations of 1 μM for the agonist assay. Compounds were diluted in DMSO (10 concentration points, 3-fold each) and added to the assay plate at a 1% final DMSO concentration. The efficacy control was 1 μM S1P (Avanti). For each compound, there were duplicate assay plates and each assay plate had duplicate wells per concentration point. The plate was incubated overnight at 37° C. The GeneBLAzer β-lactamase assay reagent (Invitrogen) was added and the plates were incubated for an additional 2 h at room temperature. Fluorescence was measured using an EnVision plate reader (PerkinElmer, Waltham, Mass.) at an excitation wavelength of 409 nm and emission wavelengths of 460 nm and 530 nm. The emission intensity at each wavelength was background subtracted against wells containing medium only and the F460 nm/F530 nm ratio determined for each concentration of the test compounds. Percent activity was calculated as [(test compound ratio−DMSO ratio)/(positive control ratio−DMSO ratio)*100], where the positive control and DMSO ratios are from cells incubated with the efficacy control 1 μM S1P and 1% DMSO, respectively. The percent activities were plotted against compound concentration to determine EC50 using XLFit (IDBS).
A general note: Recruitment of arrestin is a read-out of receptor activation apart from second messengers.

Test [3] has as its target T3, hS1PR5 (hEdg8) membrane protein (Homo sapiens, UniProt Q9H228).
T3 construct: expressed in transfected cells; host or cells: CHO
Description: hS1P5R GTPγS binding assay (Assay 4). It is filed as biochemical. As for the experimental part:
The hS1PR5 GTPγS binding assay was carried out at room temperature in 96-well non-binding surface assay plates. The reaction in each well contained 5 μg hS1PR5 (hEdg8) membrane protein from CHO cells expressing hS1PR5, 30 μM GDP, 0.1 nM [^35S]GTPγS, 0.25% fatty acid free BSA, and serially-diluted Compound of the Invention in 200 μL assay buffer (25 mM Tris-HCl PH 7.9, 100 mM NaCl, 3 mM MgCl2, and 0.2 mM EGTA). After one hour of incubation, 0.9 mg of WGA (Wheat Germ Agglutinin) SPA beads in 50 μL of assay buffer was added to each well. The SPA beads were spun down after an additional one hour incubation. The radioactivity of the bound GTPγS was counted by reading the assay plate using a MicroBeta.

Test [4] concerns the target T4, S1P3 (Homo sapiens, UniProt Q99500).
T4 construct: host or cells: HEK293 (transient transfection)
Description: S1P3 Tango β-arrestin recruitment assay in HEK293 cells (Assay 5). It is filed as cell-based.
Description: as §1
Assay 2a: Frozen HEK293 cells transiently transfected with receptor cDNAs for S1P1 (Invitrogen) are thawed and suspended in 10 mL of Pro293a-CDM culture medium (Invitrogen) supplemented with 4 mM L-Glutamine (Invitrogen), 1× Pen/Strep (100 units/mL penicillin and 100 μg/mL streptomycin, Invitrogen) and 0.1% fatty acid free BSA (Sigma-Aldrich). Cells are added to the wells of a 384-well white opaque bottom assay plate (PerkinElmer) at 3,000-6,000 cells per well and the plate is incubated for approximately 4 h in a 37° C. incubator. Test compounds are tested at maximum concentrations of 10 μM for the agonist assays. Compounds are diluted in DMSO (10 concentration points, 3-fold each) and added to the assay plate at a 1% final DMSO concentration. For each compound, there are duplicate assay plates and each assay plate has duplicate wells per concentration point. The plate is incubated at 37° C. for 30 min. The efficacy control is 5 μM S1P (Avanti). Following agonist addition, the assay plates are incubated in a 37° C. incubator for 16-18 h. Luciferase assay reagent is added and luminescence measured in an EnVision plate reader (PerkinElmer). To determine agonist activity, percent activity is calculated as [(test compound−background)/(positive control−background)*100], where background is the luminescence of the DMSO alone control and the positive control is the luminescence from cells incubated with the efficacy control 5 μM S1P. The percent activities are plotted against compound concentration to determine EC50 using XLFit (IDBS).
This assay was conducted using the procedures described in Assay 2a, replacing S1P1 with S1P3.

Setting [5] is: * = rEC50 measured rather than EC50, read-out: Assay 5 rEC50 (relative EC50, cells marked *).

Where two headings read alike, the source gives them in different places.

T1 sequence (P21453 whole entry): as above
T3 sequence (Q9H228 whole entry): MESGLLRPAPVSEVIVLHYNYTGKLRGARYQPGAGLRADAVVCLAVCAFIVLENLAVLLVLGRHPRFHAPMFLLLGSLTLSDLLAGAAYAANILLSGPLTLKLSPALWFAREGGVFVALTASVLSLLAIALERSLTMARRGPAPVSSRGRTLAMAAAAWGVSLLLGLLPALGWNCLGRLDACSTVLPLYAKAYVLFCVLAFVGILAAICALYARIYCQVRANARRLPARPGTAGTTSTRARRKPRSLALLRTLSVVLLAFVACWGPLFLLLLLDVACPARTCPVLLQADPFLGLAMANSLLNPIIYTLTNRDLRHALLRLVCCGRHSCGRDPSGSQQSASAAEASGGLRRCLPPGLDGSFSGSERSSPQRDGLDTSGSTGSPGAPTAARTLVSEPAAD
T4 sequence (P32121 whole entry): as the sequence (P32121 whole entry) above
T4 sequence (Q99500 whole entry): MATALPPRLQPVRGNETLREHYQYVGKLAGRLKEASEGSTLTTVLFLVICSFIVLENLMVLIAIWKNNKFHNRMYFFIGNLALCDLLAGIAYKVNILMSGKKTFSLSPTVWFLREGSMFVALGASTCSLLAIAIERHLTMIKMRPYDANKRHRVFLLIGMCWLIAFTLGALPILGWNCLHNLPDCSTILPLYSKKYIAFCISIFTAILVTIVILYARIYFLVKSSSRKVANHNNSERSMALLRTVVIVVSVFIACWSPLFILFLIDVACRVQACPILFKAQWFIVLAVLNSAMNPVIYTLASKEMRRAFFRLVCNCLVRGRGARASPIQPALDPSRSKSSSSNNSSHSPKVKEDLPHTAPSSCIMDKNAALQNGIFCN

Regarding `CC(C)Nc1ncc(-c2nnc(-c3cc(F)c(OC[C@H](N)CO)cc3Cl)s2)cn1` [Entry 89, (2R)-2-amino-3-{[5-chloro-2-fluoro-4-(5-{2-[(1-methylethyl)amino]pyrimidin-5-yl}-1,3,4-thiadiazol-2-yl)phenyl]oxy}propan-1-ol], the EC50 was 50 to 250 nM in test [1], 10 to 50 nM in test [2], 250 to 2800 nM in test [3] and greater than 10000 nM in test [4] (read-out: Assay 5 EC50).

`CC(C)Nc1ncc(-c2nnc(-c3cc(F)c(OC[C@H](N)CO)cc3Cl)s2)cc1Cl` [Entry 81, (2R)-2-amino-3-{[5-chloro-4-(5-{5-chloro-6-[(1-methylethyl)amino]pyridin-3-yl}-1,3,4-thiadiazol-2-yl)-2-fluorophenyl]oxy}propan-1-ol]: the concentration for a half-maximal effect (EC50) in test [1] was 10 to 50 nM; in test [2], 10 to 50 nM; in test [3], 250 to 2800 nM; in test [4] (read-out: Assay 5 EC50), greater than 10000 nM.

For `CC(C)Nc1ccc(-c2nnc(-c3cc(F)c(OC[C@H](N)[C@@H](C)O)cc3Cl)s2)cn1` [Entry 46, (2R,3S)-3-amino-4-{[5-chloro-2-fluoro-4-(5-{6-[(1-methylethyl)amino]pyridin-3-yl}-1,3,4-thiadiazol-2-yl)phenyl]oxy}butan-2-ol], the concentration for a half-maximal effect (EC50) in test [1] is 250 to 2800 nM; in test [2], 10 to 50 nM; in test [3] it was 250 to 2800 nM; in test [4] (read-out: Assay 5 EC50) it was greater than 10000 nM.

For `CC(C)Oc1ccc(-c2nnc(-c3cc(F)c(OC[C@H](N)COP(=O)(O)O)cc3Cl)s2)cc1Br` [Entry 29, (2S)-2-amino-3-{[4-(5-{3-bromo-4-[(1-methylethyl)oxy]phenyl}-1,3,4-thiadiazol-2-yl)-5-chloro-2-fluorophenyl]oxy}propyl dihydrogen phosphate], the EC50 was no more than 10 nM in test [1], no more than 10 nM in test [2], no more than 10 nM in test [3] and no more than 250 nM in test [4] (read-out: Assay 5 EC50).

`CC(C)Nc1ccc(-c2nnc(-c3cc(F)c(OC[C@H](N)CO)cc3Cl)s2)cn1` [Entry 75, (2R)-2-amino-3-{[5-chloro-2-fluoro-4-(5-{6-[(1-methylethyl)amino]pyridin-3-yl}-1,3,4-thiadiazol-2-yl)phenyl]oxy}propan-1-ol]: the EC50 was 250 to 2800 nM in test [1], 10 to 50 nM in test [2], 250 to 2800 nM in test [3] and greater than 10000 nM in test [4] (read-out: Assay 5 EC50).

As to `CC(C)Oc1ccc(-c2nnc(-c3cc(F)c(OC[C@H](N)[C@H](C)O)cc3Cl)s2)cc1C#N` [Entry 83, 5-[5-(4-{[(2S,3S)-2-amino-3-hydroxybutyl]oxy}-2-chloro-5-fluorophenyl)-1,3,4-thiadiazol-2-yl]-2-[(1-methylethyl)oxy]benzonitrile], the EC50 is no more than 10 nM in test [1], no more than 10 nM in test [2], 10 to 50 nM in test [3] and greater than 10000 nM in test [4] (read-out: Assay 5 EC50).

Take `CC(C)Oc1ccc(-c2nnc(-c3cc(F)c(OC[C@H](N)COP(=O)(O)O)cc3Cl)s2)cc1Cl` [Entry 13, (2S)-2-amino-3-{[5-chloro-4-(5-{3-chloro-4-[(1-methylethyl)oxy]phenyl}-1,3,4-thiadiazol-2-yl)-2-fluorophenyl]oxy}propyl dihydrogen phosphate]: the EC50 was no more than 10 nM in test [1], no more than 10 nM in test [2], no more than 10 nM in test [3] and no more than 250 nM in test [4] (read-out: Assay 5 EC50).

As for `CC(C)Oc1ccc(-c2nnc(-c3cc(F)c(OC[C@@H](N)COP(=O)(O)O)cc3Cl)s2)cc1Br` [Entry 12, (2R)-2-amino-3-{[4-(5-{3-bromo-4-[(1-methylethyl)oxy]phenyl}-1,3,4-thiadiazol-2-yl)-5-chloro-2-fluorophenyl]oxy}propyl dihydrogen phosphate], the half-maximal effective concentration (EC50) in test [1] was no more than 10 nM; in test [2], no more than 10 nM; in test [3] it was no more than 10 nM; in test [4] (setting [5]), no more than 250 nM.

For the compound `CC(C)Oc1ccc(-c2nnc(-c3cc(F)c(OC[C@@H](N)[C@H](C)OP(=O)(O)O)cc3Cl)s2)cc1Cl` [Entry 64, (1S,2R)-2-amino-3-{[5-chloro-4-(5-{3-chloro-4-[(1-methylethyl)oxy]phenyl}-1,3,4-thiadiazol-2-yl)-2-fluorophenyl]oxy}-1-methylpropyl dihydrogen phosphate], the concentration giving a half-maximal response (EC50) was no more than 10 nM in test [1], no more than 10 nM in test [2], no more than 10 nM in test [3] and no more than 250 nM in test [4] (setting [5]).

As for `CC(C)N(C)c1cc(-c2nnc(-c3cc(F)c(OCC(N)CO)cc3Cl)s2)cc(Cl)n1` (stereo not shown) [Entry 5, 2-amino-3-{[5-chloro-4-(5-{2-chloro-6-[methyl(1-methylethyl)amino]pyridin-4-yl}-1,3,4-thiadiazol-2-yl)-2-fluorophenyl]oxy}propan-1-ol], the EC50 in test [1] was 10 to 50 nM; in test [2] it was no more than 10 nM; in test [3], 250 to 2800 nM; in test [4] (read-out: Assay 5 EC50), no more than 250 nM.

Regarding “(1S,2R)-2-amino-3-{[5-chloro-2-fluoro- 4-(5-{2-methyl-6-[(1- methylethyl)amino]pyridin-4-yl}-1,3,4- thiadiazol-2-yl)phenyl]oxy}-1- methylpropyl dihydrogen phosphate [Entry 101]”, the concentration for a half-maximal effect (EC50) was no more than 10 nM in test [1], no more than 10 nM in test [2], no more than 10 nM in test [3] and greater than 250 nM in test [4] (read-out: Assay 5 EC50).

As for `Cc1cc(-c2nnc(-c3cc(F)c(OC[C@@H](N)[C@H](C)O)cc3Cl)s2)cnc1NC(C)C` [Entry 96, (2S,3R)-3-amino-4-{[5-chloro-2-fluoro-4-(5-{5-methyl-6-[(1-methylethyl)amino]pyridin-3-yl}-1,3,4-thiadiazol-2-yl)phenyl]oxy}butan-2-ol], the concentration giving a half-maximal response (EC50) in test [1] is 250 to 2800 nM; in test [2], no more than 10 nM; in test [3], 2800 to 10000 nM; in test [4] (read-out: Assay 5 EC50), greater than 10000 nM.

As for “(1R,2S)-2-amino-3-{[5-chloro-2-fluoro- 4-(5-{3-methyl-4-[(1- methylethyl)oxy]phenyl}-1,3,4- thiadiazol-2-yl)phenyl]oxy}-1- methylpropyl dihydrogen phosphate [Entry 99]”, the EC50 was no more than 10 nM in test [1], no more than 10 nM in test [2], 10 to 50 nM in test [3] and no more than 250 nM in test [4] (read-out: Assay 5 EC50).

Usually EC50 stands for the midpoint of the concentration-response curve.

Values taken from patent publication US20100249071A1, “Modulators of S1P and Methods of Making And Using” (Exelixis, Inc., priority 2009, published 2010).
